From patent publication US8716303B2, “N-(hetero)aryl-pyrrolidine derivatives of pyrazol-4-yl-pyrrolo[2,3-d]pyrimidines and pyrrol-3-yl-pyrrolo[2,3-d]pyrimidines as janus kinase inhibitors” (Incyte Corporation, priority 2009, dated 2014)
Where a name gives a salt, the structure may show the parent alone.

How the values were obtained:
[1] = biological target: T1, Jak2 (a.a. 828-1132) (Homo sapiens, UniProt O60674); assay: In vitro JAK kinase assay (HTRF, phosphorylation of a biotinylated peptide), JAK2, reported as JAK2/JAK1 ratio; format: biochemical; settings: Assay Conditions 1 mM ATP
T1 construct: Jak2 (a.a. 828-1132); His tag (N); made in house; host or cells: insect cells (baculovirus)

[2] = biological target: T2, human JAK1 (a.a. 837-1142) (Homo sapiens, UniProt P23458); assay: In vitro JAK kinase assay (HTRF, phosphorylation of a biotinylated peptide), JAK1; format: biochemical; settings: Assay Conditions 1 mM ATP
T2 construct: human JAK1 (a.a. 837-1142); His tag (N); made in house; host or cells: insect cells (baculovirus)
Method in brief: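 IC50s come from HTRF detection (Eu-Py20, SA-APC, 40 min binding) after 1 h RT reactions with 500 nM biotinylated peptide in Tris pH 7.8 buffer. ATP either 1 mM or Km-level, 90 μM for JAK1 and 30 μM for JAK2; enzymes are baculovirus-expressed His-tagged catalytic domains (JAK1 837-1142, JAK2 828-1132).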

T1 sequence (O60674 828-1132): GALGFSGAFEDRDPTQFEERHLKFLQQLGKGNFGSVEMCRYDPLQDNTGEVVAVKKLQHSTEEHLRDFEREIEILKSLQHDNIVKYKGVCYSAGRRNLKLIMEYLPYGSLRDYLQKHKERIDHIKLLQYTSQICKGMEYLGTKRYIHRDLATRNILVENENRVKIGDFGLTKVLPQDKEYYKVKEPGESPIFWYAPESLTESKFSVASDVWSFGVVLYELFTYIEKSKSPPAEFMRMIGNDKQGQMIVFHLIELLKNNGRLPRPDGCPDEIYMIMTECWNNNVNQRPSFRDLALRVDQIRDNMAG
T2 sequence (P23458 849-1154): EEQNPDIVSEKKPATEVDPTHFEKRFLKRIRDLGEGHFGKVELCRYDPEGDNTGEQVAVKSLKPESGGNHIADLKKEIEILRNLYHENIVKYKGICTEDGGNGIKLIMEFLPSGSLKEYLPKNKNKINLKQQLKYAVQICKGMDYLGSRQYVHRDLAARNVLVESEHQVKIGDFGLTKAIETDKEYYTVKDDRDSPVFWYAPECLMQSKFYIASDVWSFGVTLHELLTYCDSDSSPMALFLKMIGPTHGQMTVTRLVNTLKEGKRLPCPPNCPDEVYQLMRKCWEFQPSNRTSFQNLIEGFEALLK

JAK2/JAK1 IC50 ratio [1] | IC50 [2] | Structure (SMILES)
6.4 | < 50 nM | N#CC[C@@H]([C@H]1CCN(c2c(F)cc(F)c(F)c2C#N)C1)n1cc(-c2ncnc3[nH]ccc23)cn1 [Example 61, 2-((3S)-3-{(1S)-2-cyano-1-[4-(7H-pyrrolo[2,3-d]pyrimidin-4-yl)-1H-pyrazol-1-yl]ethyl}pyrrolidin-1-yl)-3,5,6-trifluorobenzonitrile trifluoroacetate salt]
7.1 | < 50 nM | N#CC[C@@H]([C@H]1CCN(c2ncccc2C#N)C1)n1cc(-c2ncnc3[nH]ccc23)cn1 [Example 62, 2-((3S)-3-{(1S)-2-cyano-1-[4-(7H-pyrrolo[2,3-d]pyrimidin-4-yl)-1H-pyrazol-1-yl]ethyl}pyrrolidin-1-yl) nicotinonitrile trifluoroacetate salt]
7.3 | < 50 nM | N#CC[C@@H]([C@H]1CCN(c2nc(Cl)c(C#N)cc2F)C1)n1cc(-c2ncnc3[nH]ccc23)cn1 [Example 63, 6-((S)-3-((S)-1-(4-(7H-pyrrolo[2,3-d]pyrimidin-4-yl)-1H-pyrazol-1-yl)-2-cyanoethyl)pyrrolidin-1-yl)-2-chloro-5-fluoronicotinonitrile trifluoroacetate salt]
11 | < 50 nM | N#CC[C@@H]([C@H]1CCN(c2cncc(Cl)c2C#N)C1)n1cc(-c2ncnc3[nH]ccc23)cn1 [Example 64, 3-chloro-5-((3S)-3-{(1S)-2-cyano-1-[4-(7H-pyrrolo[2,3-d]pyrimidin-4-yl)-1H-pyrazol-1-yl]ethyl}pyrrolidin-1-yl) isonicotinonitrile trifluoroacetate salt]
9.4 | < 50 nM | N#CC[C@@H]([C@H]1CCN(c2c(F)nc(F)c(F)c2C#N)C1)n1cc(-c2ncnc3[nH]ccc23)cn1 [Example 65, 3-((3S)-3-{(1S)-2-cyano-1-[4-(7H-pyrrolo[2,3-d]pyrimidin-4-yl)-1H-pyrazol-1-yl]ethyl}pyrrolidin-1-yl)-2,5,6-trifluoroisonicotinonitrile trifluoroacetate salt]
>20 | < 50 nM | N#CC[C@@H]([C@H]1CCN(c2nccc(C(F)(F)F)c2F)C1)n1cc(-c2ncnc3[nH]ccc23)cn1 [Example 66, (3S)-3-{(3S)-1-[3-fluoro-4-(trifluoromethyl)pyridin-2-yl]pyrrolidin-3-yl}-3-[4-(7H-pyrrolo[2,3-d]pyrimidin-4-yl)-1H-pyrazol-1-yl] propanenitrile trifluoroacetate salt]
5.6 | < 50 nM | N#CC[C@@H]([C@H]1CCN(c2nc(F)c(F)cc2F)C1)n1cc(-c2ncnc3[nH]ccc23)cn1 [Example 67, (3S)-3-[4-(7H-pyrrolo[2,3-d]pyrimidin-4-yl)-1H-pyrazol-1-yl]-3-[(3S)-1-(3,5,6-trifluoropyridin-2-yl)pyrrolidin-3-yl]propanenitrile trifluoroacetate salt]
8.2 | < 50 nM | N#CC[C@@H]([C@H]1CCN(c2cccnc2C#N)C1)n1cc(-c2ncnc3[nH]ccc23)cn1 [Example 68, 3-((3S)-3-{(1S)-2-cyano-1-[4-(7H-pyrrolo[2,3-d]pyrimidin-4-yl)-1H-pyrazol-1-yl]ethyl}pyrrolidin-1-yl) pyridine-2-carbonitrile trifluoroacetate salt]
6.5 | < 50 nM | N#CC[C@@H]([C@H]1CCN(c2ccc(C#N)c(Cl)n2)C1)n1cc(-c2ncnc3[nH]ccc23)cn1 [Example 69, 2-chloro-6-((3S)-3-{(1S)-2-cyano-1-[4-(7H-pyrrolo[2,3-d]pyrimidin-4-yl)-1H-pyrazol-1-yl]ethyl}pyrrolidin-1-yl)nicotinonitrile trifluoroacetate salt]
1.7 | < 50 nM | N#CCC(C1CCN(c2ccc3cc[nH]c3n2)C1)n1cc(-c2ncnc3[nH]ccc23)cn1 (stereo not drawn) [Example 73, 3-(1-(1H-pyrrolo[2,3-b]pyridin-6-yl)pyrrolidin-3-yl)-3-(4-(7H-pyrrolo[2,3-d]pyrimidin-4-yl)-1H-pyrazol-1-yl)propanenitrile trifluoroacetate]
6.2 | < 50 nM | N#CC[C@@H]([C@H]1CCN(c2ncc3sccc3c2C#N)C1)n1cc(-c2ncnc3[nH]ccc23)cn1 [Example 74, 5-((3S)-3-{(1S)-2-cyano-1-[4-(7H-pyrrolo[2,3-d]pyrimidin-4-yl)-1H-pyrazol-1-yl]ethyl}pyrrolidin-1-yl)thieno[2,3-c]pyridine-4-carbonitrile]
4.6 | < 50 nM | N#CC[C@@H]([C@H]1CCN(c2nc3ccsc3cc2C#N)C1)n1cc(-c2ncnc3[nH]ccc23)cn1 [Example 75, 5-((3S)-3-{(1S)-2-cyano-1-[4-(7H-pyrrolo[2,3-d]pyrimidin-4-yl)-1H-pyrazol-1-yl]ethyl}pyrrolidin-1-yl)thieno[3,2-b]pyridine-6-carbonitrile]
51.1 | < 50 nM | N#CC[C@@H]([C@H]1CCN(c2scc(O)c2C#N)C1)n1cc(-c2ncnc3[nH]ccc23)cn1 [Example 76, 2-((3S)-3-{(1S)-2-cyano-1-[4-(7H-pyrrolo[2,3-d]pyrimidin-4-yl)-1H-pyrazol-1-yl]ethyl}pyrrolidin-1-yl)-4-hydroxythiophene-3-carbonitrile]
39.1 | < 50 nM | N#CC[C@@H]([C@H]1CCN(c2scc(Br)c2C#N)C1)n1cc(-c2ncnc3[nH]ccc23)cn1 [Example 77, 4-bromo-2-((3S)-3-{(1S)-2-cyano-1-[4-(7H-pyrrolo[2,3-d]pyrimidin-4-yl)-1H-pyrazol-1-yl]ethyl}pyrrolidin-1-yl)thiophene-3-carbonitrile]
32.1 | < 50 nM | N#CC[C@@H]([C@H]1CCN(c2scc(Cl)c2C#N)C1)n1cc(-c2ncnc3[nH]ccc23)cn1 [Example 78, 4-chloro-2-((3S)-3-{(1S)-2-cyano-1-[4-(7H-pyrrolo[2,3-d]pyrimidin-4-yl)-1H-pyrazol-1-yl]ethyl}pyrrolidin-1-yl)thiophene-3-carbonitrile]
20.0 | < 50 nM | N#CC[C@@H]([C@H]1CCN(c2scc(C#N)c2C#N)C1)n1cc(-c2ncnc3[nH]ccc23)cn1 [Example 79, 2-((3S)-3-{(1S)-2-cyano-1-[4-(7H-pyrrolo[2,3-d]pyrimidin-4-yl)-1H-pyrazol-1-yl]ethyl}pyrrolidin-1-yl)thiophene-3,4-dicarbonitrile]
12.1 | < 50 nM | N#Cc1csc(N2CC[C@H](C(CF)n3cc(-c4ncnc5[nH]ccc45)cn3)C2)c1C#N (stereo partly drawn) [Example 80, 2-((3S)-3-{2-fluoro-1-[4-(7H-pyrrolo[2,3-d]pyrimidin-4-yl)-1H-pyrazol-1-yl]ethyl}pyrrolidin-1-yl)thiophene-3,4-dicarbonitrile]
6.7 | < 50 nM | N#CC[C@@H]([C@H]1CCN(c2ncsc2C#N)C1)n1cc(-c2ncnc3[nH]ccc23)cn1 [Example 82, 4-(3-{2-cyano-1-[4-(7H-pyrrolo[2,3-d]pyrimidin-4-yl)-1H-pyrazol-1-yl]ethyl}pyrrolidin-1-yl)-1,3-thiazole-5-carbonitrile]
